Laboratory results as given in patent publication US20260216182A1, “PYRIDAZINE NLRP3 INHIBITOR COMPOUND, PHARMACEUTICAL COMPOSITION, AND PREPARATION METHOD THEREFOR AND USE THEREOF” (CHANGCHUN GENESCIENCE PHARMACEUTICAL CO., LTD., priority 2022, published 2026).
Read-outs that look alike come from different tables or passages of the source.

Legend:
IL-1β [1] = assay: Zymosan A-induced rat pericarditis model; format: in vivo, SD rats
Description: Test Example 5 Zymosan A-Induced Rat Pericarditis Model Test
In this experiment, SD rats were used and 150 μL of a mixture of 50 mg/mL ZymosanA and normal saline was injected into the pericardial cavity to induce a rat pericarditis model and conduct a pharmacodynamic observation experiment. The day of modeling was designated as Day 1. The animals were weighed and randomly divided into groups one day before modeling, namely, G1 normal group, G2 model group, G3 compound 062-10 mg/kg group, G4 compound 062-30 mg/kg group, G5 colchicine-100 μg/kg group, with 7+1* animals in each group (one extra animal was reserved for each group, considering that animals may die during model establishment). After the model was established, oral administration began, once a day, for 7 consecutive days. At the end of the experiment, the animals were euthanized, the muscles were cut open at the third and fourth rib regions to expose the heart, the pericardium was carefully lifted with forceps, and as much pericardial effusion (if any) as possible was extracted with a 1 ml syringe. The pericardial effusion was centrifuged at 5000 rpm at 4° C. for 5 min, and the supernatant was frozen at −80° C. for later detection of IL-1β levels. After the pericardial effusion was collected, the heart was perfused and removed (while ensuring the integrity of the pericardium), fixed with 10% formalin for subsequent pathological examination.

IL-1β [2] = assay: MSU-induced rat air pouch model, IL-1β in exudate; format: in vivo, SD rats; conditions: FIG. 2
Description: Test Example 4 MSU-Induced Rat Air Pouch Model Test
Male SD rats were used in this experiment. After an adaptation period, a dorsal air pouch model was established. On the first, fourth and seventh days of the molding, 20 ml of sterile air was injected subcutaneously into the back of the rat with an injection needle to maintain the inflation of the air pouch. On the eighth day, different doses of the compound or vehicle control were administered by oral gavage. 25 mg of sodium urate suspension was injected into the dorsal air pouch, and 5 h later, the air pouch exudate was collected. The exudate was centrifuged at 1500 rpm for 20 min, and the supernatant was collected and the IL-Iβ production was detected by ELISA (R&D, Ra1 IL-1β kit).

IL-1β [3] = assay: Mouse acute peritonitis model (LPS/ATP), IL-1β in peritoneal lavage fluid and blood; format: in vivo, C57BL/6 mice; conditions: 10 mg/kg oral; for inhibition at 10 mg/kg: Mus musculus, vs vehicle group
Description: Test Example 2: Mouse Acute Peritonitis Model Evaluation Experiment
Male C57BL/6 mice were orally administered with a 10 mg/kg dose of the test compound or control vehicle, and then injected intraperitoneally with 1 μg of E. coli 055: B5 ultrapure lipopolysaccharide (LPS) suspension 1 h later, followed by an intraperitoneal injection of 0.5 ml of 30 mM disodium salt ATP suspension (in PBS, the pH of the ATP solution was adjusted to 7.2 before injection) 2 h later. After 30 min, all animals would be euthanized by carbon dioxide, and blood and peritoneal lavage fluid would be collected. The peritoneal lavage fluid was kept at 4° C.
Preparation of peritoneal lavage fluid: The peritoneal cavity would be lavaged with ice-cold PBS (3 mL) containing 25 U/mL heparin and 10% heat-inactivated FBS. Prior to use, one tablet of the protease inhibitor mixture was added per 50 mL of buffer. The collected lavage fluid would be centrifuged (centrifugation conditions: 1000g, 4° C., 10 min) to remove cells and cell debris, and the clarified samples would be stored at −80° C. for measurement of cytokine IL-1β.
The mouse IL-1β/IL-1F2 DuoSet ELISA kit (R&D Systems) was used to measure the changes in IL-1β cytokine levels in peritoneal lavage fluid and serum. By comparing with the Vehical group, the inhibition rate of the compound on IL-1β was calculated.

NLRP3 = molecular target: T1, NLRP3 (Homo sapiens, UniProt Q96P20); assay: IC50 of NLRP3 inhibitors in reducing IL-1β secretion by THP-1 cells (PMA, LPS, nigericin; ELISA); format: cell-based; conditions: compound + nigericin 1 h
T1 construct: endogenous in cells; host or cells: THP-1 (human monocyte, PMA-differentiated, LPS-primed, nigericin-stimulated)
Description: Test Example 1 Experiment on Detection of IC50 of NLRP3 Inhibitors in Reducing the Level of IL-1β Secretion by THP-1 Cells
In this experiment, we use the human monocyte THP-1 to study the inhibitory activity of NLRP3 inhibitor on the secretion of IL-Iβ by cells. Human THP-1 cells are treated with crotonol-12-tetradecanoate-13-acetate (PMA) to differentiate into mature macrophage models. Then, according to the two stages of inflammasome formation in cells (assembly and activation), the cells are stimulated with lipopolysaccharide (LPS) and nigericin in turn, ultimately promoting the extracellular release of IL-1β by THP-1 cells. The first stage of inflammasome formation involves stimulating cells with LPS (lipopolysaccharide), an agonist of the Toll-like receptor TLR4, to activate the expression of the inflammasome-associated proteins NLRP3, caspase 1, and pro-IL-1β, a precursor of IL-1β. The second stage of inflammasome formation involves the addition of the potassium ion carrier nigericin, which causes a series of membrane potential changes in THP-1 cells, destroys the cell membrane structure, causes the efflux of cellular potassium ions, further stimulates the oligomerization of NLRP3 monomers to form NLRP3 oligomers, and begins to recruit ASC and pro-caspase-1 to assemble the NLRP3 inflammasome complex containing a large amount of pro-caspase-1. The pro-caspase-1 on the activated NLRP3 inflammasome is enzymatically self-activated to form a large amount of active caspase-1. The activated caspase-1 further enzymatically promotes the conversion of pro-IL-1β into mature IL-1β that can be secreted.
(1) Cell suspensions were collected. The cells were centrifuged at 1000 rpm for 4 min, the supernatant was discarded, the cells were resuspended with 1 mL of test medium, and then the cell culture medium was gently pipetted up and down with a pipette and its tip to break up the cell aggregates. After counting the cells, the THP-1 cells were resuspended with complete RPMI medium 1640 containing PMA and seeded into 96-well plates and cultured in a 37° C., 5% CO2 incubator for 72 h.
(2) The culture medium was taken out from each well with an automatic plate washer dispenser EL406 and each well was rinsed twice with PBS. To each well, 96 μL of RPMI 1640 medium containing LPS was added. The cells were cultured in a 37° C., 5% CO2 incubator for 4 h.
(3) To each well, 2 μL of the compound and 2 μL of nigericin sodium salt were added, and the final compound concentration selected was 5000 nM, 1000 nM, 200 nM, 40 nM, 8 nM, 1.6 nM, 0.32 nM, 0 nM, respectively. The cells were cultured in a 37° C., 5% CO2 incubator for 1 h.
(4) An appropriate amount of supernatant was taken out, diluted 100 times, and the content of IL-1β in the supernatant was detected using Human IL-1 beta Valukine ELISA kit.

T1 sequence (Q96P20 whole entry): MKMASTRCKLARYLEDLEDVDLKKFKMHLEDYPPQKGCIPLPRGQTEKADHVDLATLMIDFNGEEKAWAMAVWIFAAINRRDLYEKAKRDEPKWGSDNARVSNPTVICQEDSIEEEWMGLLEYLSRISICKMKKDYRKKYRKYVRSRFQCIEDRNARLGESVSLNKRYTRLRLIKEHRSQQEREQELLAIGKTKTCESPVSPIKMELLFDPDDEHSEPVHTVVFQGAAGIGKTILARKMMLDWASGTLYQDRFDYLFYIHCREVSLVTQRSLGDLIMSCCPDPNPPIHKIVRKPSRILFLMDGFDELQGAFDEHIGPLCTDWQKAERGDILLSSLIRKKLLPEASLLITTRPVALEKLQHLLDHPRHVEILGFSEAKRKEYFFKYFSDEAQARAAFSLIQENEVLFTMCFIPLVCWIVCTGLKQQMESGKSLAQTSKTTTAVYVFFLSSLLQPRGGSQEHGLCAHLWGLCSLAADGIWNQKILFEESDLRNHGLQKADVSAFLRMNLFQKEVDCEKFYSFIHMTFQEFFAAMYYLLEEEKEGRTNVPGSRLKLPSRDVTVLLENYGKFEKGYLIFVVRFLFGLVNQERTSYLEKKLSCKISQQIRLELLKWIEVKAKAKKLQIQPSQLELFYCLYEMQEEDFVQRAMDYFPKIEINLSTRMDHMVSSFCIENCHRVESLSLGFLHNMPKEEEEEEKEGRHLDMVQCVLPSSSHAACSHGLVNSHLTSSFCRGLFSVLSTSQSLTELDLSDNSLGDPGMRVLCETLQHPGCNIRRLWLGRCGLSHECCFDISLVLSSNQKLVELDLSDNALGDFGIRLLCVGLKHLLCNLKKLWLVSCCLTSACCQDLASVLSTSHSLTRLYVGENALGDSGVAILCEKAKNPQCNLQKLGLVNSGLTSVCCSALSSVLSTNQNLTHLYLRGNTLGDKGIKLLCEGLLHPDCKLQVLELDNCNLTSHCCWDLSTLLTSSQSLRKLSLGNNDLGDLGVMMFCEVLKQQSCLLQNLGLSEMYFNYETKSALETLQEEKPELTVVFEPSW

CC#Cc1ccc2c(-c3ccc(Cl)cc3O)nnc(NC[C@H](O)CO)c2c1 [Compound 062, (S)-3-((4-(4-chloro-2-hydroxyphenyl)-7-(prop-1-yn-1-yl)phthalazin-1-yl)amino) propan-1,2-diol]
degree of pericardial inflammation (IL-1β [1]; 10 and 30 mg/kg oral once a day, 7 days, FIG. 3): improved the degree of pericardial inflammation
production of IL-1β in the pericardium and pericardial effusion (IL-1β [1]; 10 and 30 mg/kg oral once a day, 7 days, FIG. 4): significantly inhibited the production of IL-1β in the pericardium and pericardial effusion
effect compared with colchicine (IL-1β [1]; colchicine 100 μg/kg): comparable to that of colchicine
effect on IL-1β compared with colchicine and tofacitinib (IL-1β [2]): better than that of colchicine and tofacitinib
production of IL-1β in the air pouch (IL-1β [2]; oral gavage, exudate 5 h after MSU): significantly inhibited the production of IL-1β in the air pouch
inhibitory effect on IL-1β in the in vivo animal model (in words) (IL-1β [3]): Conclusion: Some compounds showed inhibitory effects on IL-1β in the in vivo animal model evaluation experiment, among which compound 062 had the most significant inhibitory effect.
inhibition at 10 mg/kg (IL-1β [3]; read-out: IL-1β Peritoneal lavage fluid (inhibition rate)): 94%
inhibition at 10 mg/kg (IL-1β [3]; read-out: IL-1β Plasma (inhibition rate)): 96%
IC50 (NLRP3): 9.7 nM
